US20110065675A1, “AZO DYE RELATED SMALL MOLECULE MODULATORS OF PROTEIN-PROTEIN INTERACTIONS” (University of Miami, priority 2008, published 2011)
Where two headings read alike, the source gives them in different places.

Legend:
[1] = target: T1, mouse CD40/CD154 (mCD40:mCD154) (Mus musculus, UniProt P27548); experiment: Murine CD40/CD154 binding inhibition assay; conditions: for IC50: cell-free binding, read-out: Mouse CD40/CD154 IC50
T1 construct: (FLAG-tagged) mCD154 (recombinant mouse CD40L, soluble, Alexis Biochemicals); purchased R&D Systems (mCD40/Fc); Alexis Biochemicals (mCD154)
T1 sequence (P27548 112-260 limits assumed): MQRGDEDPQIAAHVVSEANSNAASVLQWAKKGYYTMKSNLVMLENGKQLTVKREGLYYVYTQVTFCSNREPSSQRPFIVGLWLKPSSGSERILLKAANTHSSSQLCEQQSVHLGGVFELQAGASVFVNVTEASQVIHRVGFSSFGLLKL
Procedure: Compounds of interest were also tested in a murine (mouse) model similar to the human one with murine CD40 and CD154 replacing the corresponding human proteins. This serves as additional confirmation of the in vitro inhibitory potential of these compounds, and it was considered important because mouse models are likely to be used as the first in vivo tests. […] The experimental setup used was similar to the one described above, but using mCD40 (recombinant mouse CD40/TNFRSF5/Fc Chimera, soluble, R&D Systems) and (FLAG-tagged) mCD154 (recombinant mouse CD40L, soluble, Alexis Biochemicals). This time, however, a higher concentration of CD154 ligand had to be employed to obtain adequate signals, and after a number of calibration tests, mCD40 coating at 0.3125 μg/mL with mCD154 (mCD40L) at 1.1212 μg/mL range was selected to be used to screen the inhibiting activity of various compounds.
The experiments confirmed that the murine anti-CD154 monoclonal antibody (Taconic, MR1) was active in this system at the expected concentration (˜1 nM range), the human antibody was not, and vice versa, the human mAb was active in the human system, but not in the mouse system. The mouse system provided a similar range of activity with some (up to approximately five-fold) changes in activities compared to that seen in the human system (FIG. 2) (Table 1).

human CD40/CD154 = target: T2, human CD40/CD154 (Homo sapiens, UniProt P29965); experiment: Human CD40/CD154 binding inhibition assay (cell-free, plate-based)
T2 construct: CD154 (soluble human, FLAG-tagged, recombinant from Alexis Biochemicals; MW=18 kDa); purchased Alexis Biochemicals
T2 sequence (P29965 113-261 limits assumed): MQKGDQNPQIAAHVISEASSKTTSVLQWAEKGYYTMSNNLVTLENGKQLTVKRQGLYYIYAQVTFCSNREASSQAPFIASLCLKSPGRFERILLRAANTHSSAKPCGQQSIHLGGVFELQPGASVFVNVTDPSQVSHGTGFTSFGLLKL
Procedure: A 96-well plate-based cell-free in vitro binding inhibition assay, which is a modification of an assay described in U.S. Pat. No. 7,173,046, incorporated by reference in its entirety, has been developed and used for activity screening. Briefly, CD40 is coated at a preselected concentration, and binding of (FLAG-tagged) CD154 is measured by reacting with secondary antibody and using TMB liquid substrate system as a substrate for horseradish peroxidase for reading at 450 nm. The detailed procedure is as follows: Microtiter plates (Nunc F MaxiSorp) were coated with […] of CD40: Fc (human:Fc human, recombinant from Alexis Biochemicals; MW=54 kDa) diluted in PBS pH 7.2 at a preselected concentration of 0.3125 μg/mL. Plates were covered with plate sealer and stored overnight at 4° C. The liquid was removed from the plates and blotted dry. Plates were blocked by washing once with approx. 300 μL/well of Blocking Solution (PBS pH 7.2, 0.05% Tween-20, 1% BSA) and incubated with the same solution for 1 hour at room temperature (RT) or at 4° C. overnight. Coated plates were washed three times with Washing Solution (PBS pH 7.4, 0.05% Tween-20) and blotted dry. A preselected dilution of CD154 (soluble human, FLAG-tagged, recombinant from Alexis Biochemicals; MW=18 kDa) of 0.0087500875 μg/mL range was prepared in 100 mM HEPES, 0.005% BSA pH 7.2. Binding was carried out by adding 100 μL of this CD154 dilution/well and incubating at RT in the presence of test compounds (or blank as negative control). After incubation, the plates were washed with Washing Solution and blotted dry. Bound CD154 was detected with 200 μL/well of secondary antibody mAb ANTI-FLAG M2—Peroxidase Conjugate (anti-FLAG M2-peroxidase HRP conjugate; Sigma-Aldrich) diluted 1:40,000 in Washing Solution. After incubation, the plates were washed and blotted dry. 200 μL/well of the HR-Peroxidase substrate TMB (3,3′,5,5′-tetramethylbenzidine; Sigma-Aldrich) were added, and the plates were incubated for approximately 30 minutes in the dark. The reaction was stopped with 0.5 M H2SO4 and read at 450 nm. All conditions were tested in at least three independent experiments in duplicate or triplicate per plates. Data were normalized and fitted with standard log inhibitor vs. response models using GraphPad Prism 5 to establish median inhibitory ICso values.
A representative result using the monoclonal anti-human CD154 antibody (R&D Systems, monoclonal anti-human CD40 ligand/TNFSF5 antibody, MAB617; MW≈150 kDa used) as positive control is shown in FIG. 1.
Binding inhibition assays with this system provided consistent and well-reproducible results, as FIG. 1 (bottom), focusing on the concentration range of their activities, illustrates. […] The effect of DMSO, which was used as the diluting solvent for the non-water-soluble compounds and is a standard solvent in HTS assays, on the integrity of the assay has been examined. DMSO concentrations above 10% interfere with the binding assay, but concentrations below 3% have no effect. […] Because 5 or 10 mM stock solutions were used, all IC50 values below 250 μM can be considered as unaffected by DMSO.

human TNF-R1/TNFα = human TNF-R1/TNFα (Homo sapiens, UniProt P01375+P19438); experiment: Specificity test: human TNF-R1/TNFα binding inhibition assay; conditions: for IC50: cell-free binding, read-out: Human TNFR1/TNFα IC50
Text: A main concern for the therapeutic applicability of these compounds and of small molecule PPI inhibitors in general is related to their ability to achieve some acceptable degree of selectivity/specificity for the PPI of interest. To identify compounds that show acceptable specificity for the CD40/CD154 system, their ability to inhibit the TNF-R1/TNF-α PPI was investigated since this is particularly relevant as CD154 is part of the TNF superfamily. The experimental setup used was very similar to the one described in Example 1, but using plate-coated TNF-R1 and TNF-α as ligand (with a corresponding anti-TNF-α mAb as positive control). The concentration of TNF-R1 and TNF-α used were 0.6 μg/mL and 0.02 μg/mL, respectively.

[2] = cell-free binding, read-out: Human CD40/CD154 IC50

Sequence of human TNF-R1/TNFα (P01375 77-233 limits assumed): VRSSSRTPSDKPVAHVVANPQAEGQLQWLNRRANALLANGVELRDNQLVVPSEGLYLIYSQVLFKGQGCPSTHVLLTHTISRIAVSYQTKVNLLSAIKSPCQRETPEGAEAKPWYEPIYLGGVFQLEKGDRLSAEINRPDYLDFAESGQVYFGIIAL
Sequence of human TNF-R1/TNFα (P19438 30-211 limits assumed): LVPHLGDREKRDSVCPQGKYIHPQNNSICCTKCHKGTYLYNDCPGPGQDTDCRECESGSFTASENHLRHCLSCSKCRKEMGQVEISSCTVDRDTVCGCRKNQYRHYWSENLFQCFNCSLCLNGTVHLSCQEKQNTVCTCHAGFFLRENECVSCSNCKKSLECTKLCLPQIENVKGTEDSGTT

Structure (SMILES)	IC50 [1]	IC50 (human CD40/CD154; [2])	IC50 (human CD40/CD154; cell-free binding, read-out: Human CD40/CD154 IC50 (ug/mL) (converted))	IC50 (human TNF-R1/TNFα)	Mouse CD40/CD154 log IC50 ([1]; log of IC50, cell-free binding)	Activity in the human CD40/CD154 binding assay (human CD40/CD154)	Human CD40/CD154 IC50 (human CD40/CD154; cell-free binding)	Human CD40/CD154 log IC50 (human CD40/CD154; log of IC50, cell-free binding)	Human TNFR1/TNFα log IC50 (human TNF-R1/TNFα; log of IC50, cell-free binding)
Cc1ccc(C(=O)Nc2ccc(S(=O)(=O)O)c3cc(S(=O)(=O)O)cc(S(=O)(=O)O)c23)cc1NC(=O)c1cccc(NC(=O)Nc2cccc(C(=O)Nc3cc(C(=O)Nc4ccc(S(=O)(=O)O)c5cc(S(=O)(=O)O)cc(S(=O)(=O)O)c45)ccc3C)c2)c1 [Suramin, reference compound]	4.5 µM	14.6 µM	14 µM	486 µM					
O=C([O-])C1=NN(c2ccc(S(=O)(=O)[O-])cc2)C(=O)C1N=Nc1ccc(S(=O)(=O)[O-])cc1.[Na+].[Na+].[Na+] (stereo not drawn) [Tartrazine (FD&C yellow 5), Tartrazine, reference compound]	> 2000 µM	> 2000 µM		> 2000 µM	>−3.0	inactive	>2000 µg/mL	>−3.0	>−3.0
